Legend:
cleavers (GALAP) = test: Postemergence greenhouse trial, % visual injury on cleavers; type: in vivo, Galium aparine
Protocol: (§1) Seeds of the desired test plant species were planted in Sun Gro MetroMix® 306 planting mixture, which typically has a pH of 6.0 to 6.8 and an organic matter content of about 30 percent, in plastic pots with a surface area of 103.2 square centimeters (cm^2). When required to ensure good germination and healthy plants, a fungicide treatment and/or other chemical or physical treatment was applied. The plants were grown for 7-36 days (d) in a greenhouse with an approximate 14-hour (h) photoperiod which was maintained at about 23° C. during the day and 22° C. during the night. Nutrients and water were added on a regular basis and supplemental lighting was provided with overhead metal halide 1000-Watt lamps as necessary. The plants were employed for testing when they reached the second or third true leaf stage.
(§2) Weighed amounts of technical material were dissolved in a volume of 97:3 volume per volume (v/v) acetone/dimethyl sulfoxide (DMSO) to stock solutions. […] The concentrated stock solutions were diluted with an aqueous mixture of 1.5% v/v of Agri-dex crop oil concentrate to provide the appropriate application rates. Compound requirements are based upon a 12 milliliter (mL) application volume at a rate of 187 liters per hectare (L/ha). Stocks solutions of the safeners were prepared following the same procedure. Spray solutions of the safeners and experimental compound mixtures were prepared by adding the stock solutions to the appropriate amount of dilution solution to form a 12 mL spray solution in two-way combinations. Formulated compounds were applied to the plant material with an overhead Mandel track sprayer equipped with 8002E nozzles calibrated to deliver 187 L/ha over an application area of 0.503 square meters (m^2) at a spray height of 18 inches (43 centimeters (cm)) above average plant canopy. Control plants were sprayed in the same manner with the solvent blank. All herbicide application (component a) rates are in g ae/ha and all safener (component b) rates are in g ai/ha.
(§3) The treated plants and control plants were placed in a greenhouse as described above and watered by sub-irrigation to prevent wash-off of the test compounds. After 20-22 d, the condition of the test plants as compared with that of the control plants was determined visually and scored on a scale of 0 to 100 percent where 0 corresponds to no injury and 100 corresponds to complete kill. The condition of the test plants was compared with that of the control plants as determined visually and scored on a scale of 0 to 100 percent, where 0 corresponds to no injury and 100 corresponds to complete kill. Colby's equation was used to determine the herbicidal effects expected from the mixtures.
(§4) The safener cloquintocet-mexyl was combined with compound 1, compound 2, compound 3, compound 7, compound 8, compound 9, compound 10, compound 11, compound 12, compound 13, compound 14, compound 15, compound 16, compound 17, compound 18, compound 19, and compound 20, and applied to spring wheat (TRZAS), winter wheat (TRZAW), and spring barley (HORVS) and the phytotoxicity of the herbicidal compositions was measured. […]

wild chamomile (MATCH) = test: Postemergence greenhouse trial, % visual injury on wild chamomile; type: in vivo, Matricaria chamomilla
Protocol: as §1, §2
as §3, with “mixtures. […]” for “mixtures.”

wild buckwheat (POLCO) = test: Postemergence greenhouse trial, % visual injury on wild buckwheat; type: in vivo, Polygonum convolvulus; conditions: for % visual injury, observed (Ob): POLCO
How it was run: (§5)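 Plants at second or third true leaf stage, greenhouse-grown (14 h photoperiod, ~23/22° C.), sprayed postemergence with compounds alone or with safener cloquintocet-mexyl in 1.5% v/v Agri-dex crop oil at 187 L/ha. Visual injury scored 0–100% versus solvent-blank controls after 20-22 d; expected mixture effects by Colby's equation.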

chickweed (STEME) = test: Postemergence greenhouse trial, % visual injury on chickweed; type: in vivo, Stellaria media; conditions: alone, 35 g/ha
How it was run: as §5

prickly lettuce (LACSE) = test: Postemergence greenhouse trial, % visual injury on prickly lettuce; type: in vivo, Lactuca serriola
Protocol: as §1, §2
as §3, with “mixtures. […]” for “mixtures.”

shepherd's purse (CAPBP) = test: Postemergence greenhouse trial, % visual injury on shepherd's purse; type: in vivo, Capsella bursa-pastoris; conditions: alone
Protocol: as §1, §2, §3, §4

nutsedge (CYPES) = test: Postemergence greenhouse trial, % visual injury on nutsedge; type: in vivo, Cyperus esculentus; conditions: for % visual injury, observed (Ob): CYPES
Protocol: as §1, §2, §3
The safener cloquintocet-mexyl was combined with compound 1, compound 2, compound 4, compound 5, and compound 6, and applied to corn/maize (ZEAMX) and spring wheat (TRZAS) and the phytotoxicity of the herbicidal compositions was measured. In addition, the efficacy of the herbicidal composition on velvetleaf (ABUTH, Abutilon theophrasti), pigweed (AMARE, Amaranthus retroflexus), winter rape (BRSNW, Brassica napus), lambsquarters (CHEAL, Chenopodium album), thistle (CIRAR, Cirsium arvense), nutsedge (CYPES, Cyperus esculentus), poinsettia (EPHHL, Euphorbia heterophylla), wild buckwheat (POLCO, Polygonum convolvulus), giant foxtail (SETFA, Setaria faberi), and chickweed (STEME, Stellaria media) was evaluated. […]
The safener cloquintocet-acid and a number of agriculturally acceptable esters and salts (-mexyl, -dimethylammonium salt and -triethylammonium salt) were combined in varying ratios with compound 1 and applied to spring wheat (TRZAS), winter wheat (TRZAW), and spring barley (HORVS), and the phytotoxicity of the herbicidal compositions was measured. […]

corn/maize (ZEAMX) = test: Postemergence greenhouse trial, % visual injury on corn/maize; type: in vivo, Zea mays; conditions: for % visual injury, observed (Ob): ZEAMX
How it was run: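 Postemergence greenhouse spray (187 L/ha, 1.5% v/v Agri-dex in water, acetone/DMSO stocks) on plants at second–third true leaf stage, ~23/22 °C, 14 h photoperiod; herbicides in g ae/ha, safener cloquintocet-mexyl in g ai/ha. Visual injury 0–100% versus solvent-blank controls after 20–22 d; Colby's equation gave expected mixture effects.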

CCCCCC(C)OC(=O)COc1ccc(Cl)c2cccnc12 (stereo not shown) [CQC-m, cloquintocet-mexyl, reference compound]
0%: % visual injury, Ob (cleavers (GALAP); 4.375 g/ha, applied alone) | % visual injury, Ob (cleavers (GALAP); 8.75 g/ha, applied alone) | % visual injury, Ob (cleavers (GALAP); 17.5 g/ha, applied alone) | % visual injury, Ob (cleavers (GALAP); 35 g/ha, applied alone) | % visual injury, Ob (cleavers (GALAP); 70 g/ha, applied alone) | % visual injury, Ob (cleavers (GALAP); compound 0 g/ha, CQC-m 4.375 g/ha) | % visual injury, Ob (cleavers (GALAP); compound 0 g/ha, CQC-m 8.75 g/ha) | % visual injury, Ob (cleavers (GALAP); compound 0 g/ha, CQC-m 17.5 g/ha) | % visual injury, Ob (cleavers (GALAP); compound 0 g/ha, CQC-m 35 g/ha) | % visual injury, Ob (cleavers (GALAP); compound 0 g/ha, CQC-m 70 g/ha) | % visual injury, Ob (wild chamomile (MATCH); compound 0, CQC-m 4.375 g/ha) | % visual injury, Ob (wild chamomile (MATCH); compound 0, CQC-m 8.75 g/ha) | % visual injury, Ob (wild chamomile (MATCH); compound 0, CQC-m 17.5 g/ha) | % visual injury, Ob (wild chamomile (MATCH); compound 0, CQC-m 35 g/ha) | % visual injury, Ob (wild chamomile (MATCH); compound 0, CQC-m 70 g/ha) | % visual injury, observed (Ob) (wild buckwheat (POLCO); compound 8 0 + CQC-m 4.375 g/ha) | % visual injury, observed (Ob) (wild buckwheat (POLCO); compound 8 0 + CQC-m 8.75 g/ha) | % visual injury, observed (Ob) (wild buckwheat (POLCO); compound 8 0 + CQC-m 17.5 g/ha) | % visual injury, observed (Ob) (wild buckwheat (POLCO); compound 8 0 + CQC-m 35 g/ha) | % visual injury, observed (Ob) (wild buckwheat (POLCO); compound 8 0 + CQC-m 70 g/ha) | % visual injury, Ob (wild buckwheat (POLCO); alone, 35 g/ha) | % visual injury, Ob (chickweed (STEME)) | % visual injury, Ob (prickly lettuce (LACSE); LACSE, compound 0, CQC-m 4.375 g/ha) | % visual injury, Ob (prickly lettuce (LACSE); LACSE, compound 0, CQC-m 8.75 g/ha) | % visual injury, Ob (prickly lettuce (LACSE); LACSE, compound 0, CQC-m 17.5 g/ha) | % visual injury, Ob (prickly lettuce (LACSE); LACSE, compound 0, CQC-m 35 g/ha) | % visual injury, Ob (prickly lettuce (LACSE); LACSE, compound 0, CQC-m 70 g/ha) | % visual injury, Ob (prickly lettuce (LACSE); LACSE, compound 0 g/ha, CQC-m 4.375 g/ha) | % visual injury, Ob (prickly lettuce (LACSE); LACSE, compound 0 g/ha, CQC-m 8.75 g/ha) | % visual injury, Ob (prickly lettuce (LACSE); LACSE, compound 0 g/ha, CQC-m 17.5 g/ha) | % visual injury, Ob (prickly lettuce (LACSE); LACSE, compound 0 g/ha, CQC-m 35 g/ha) | % visual injury, Ob (prickly lettuce (LACSE); LACSE, compound 0 g/ha, CQC-m 70 g/ha) | % visual injury, Ob (prickly lettuce (LACSE); alone, 4.375 g/ha) | % visual injury, Ob (prickly lettuce (LACSE); alone, 8.75 g/ha) | % visual injury, Ob (prickly lettuce (LACSE); alone, 17.5 g/ha) | % visual injury, Ob (prickly lettuce (LACSE); alone, 35 g/ha) | % visual injury, Ob (prickly lettuce (LACSE); alone, 70 g/ha) | % visual injury, Ob (shepherd's purse (CAPBP); 4.375 g/ha) | % visual injury, Ob (shepherd's purse (CAPBP); 8.75 g/ha) | % visual injury, Ob (shepherd's purse (CAPBP); 17.5 g/ha) | % visual injury, Ob (shepherd's purse (CAPBP); 35 g/ha) | % visual injury, Ob (shepherd's purse (CAPBP); 70 g/ha) | % visual injury, observed (Ob) (nutsedge (CYPES); safener alone 2.5 g/ha) | % visual injury, observed (Ob) (nutsedge (CYPES); safener alone 5 g/ha) | % visual injury, observed (Ob) (nutsedge (CYPES); safener alone 10 g/ha) | % visual injury, observed (Ob) (nutsedge (CYPES); safener alone 20 g/ha) | % visual injury, Ob (nutsedge (CYPES); alone, 35 g/ha) | % visual injury, observed (Ob) (corn/maize (ZEAMX); safener alone 2.5 g/ha) | % visual injury, observed (Ob) (corn/maize (ZEAMX); safener alone 5 g/ha) | % visual injury, observed (Ob) (corn/maize (ZEAMX); safener alone 10 g/ha) | % visual injury, observed (Ob) (corn/maize (ZEAMX); safener alone 20 g/ha) | % visual injury, Ob (corn/maize (ZEAMX); alone, 35 g/ha)

From patent publication US9763445B2, “Safened herbicidal compositions comprising a pyridine carboxylic acid herbicide” (Dow AgroSciences, LLC, priority 2014, dated 2017)
